Assay results published in US8993574B2, “Pyrrole antifungal agents” (F2G Ltd, priority 2008, dated 2015).

Assays:
Format in all cases: cell-based
Aspergillus flavus [1] = experiment: MIC, YAG medium; details: Aspergillus flavus, 24 h, 24 h at 35° C, MIC banded into grades, read-out: MIC grade, A. flavus
Method in brief: (§1)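 Spores from 5-day Sabouraud agar cultures were suspended in YAG medium (1% glucose, 1% ammonium chloride, 0.5% yeast extract) at final inocula of 1−2×10^4 cfu/mL against doubling dilutions of compound (50-0.05 mg/L; 0.5-0.0005 mg/L on repeat). Plates were incubated 24 h at 35° C. MIC was the lowest concentration giving >70% growth inhibition by OD485 versus drug-free control.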

[2] = test system: Aspergillus fumigatus AF210; experiment: MIC, YAG medium; details: Aspergillus fumigatus, 24 h at 35° C, MIC banded into grades, read-out: MIC grade, A. fumigatus 210
Method in brief: as §1

[3] = test system: Aspergillus fumigatus AF293; experiment: MIC, YAG medium; details: Aspergillus fumigatus, 24 h at 35° C, MIC banded into grades, read-out: MIC grade, A. fumigatus
Method in brief: as §1

Aspergillus niger [4] = experiment: MIC, YAG medium; details: Aspergillus niger, 24 h at 35° C, MIC banded into grades, read-out: MIC grade, A. niger
Method in brief: as §1

Aspergillus terreus AT49 [5] = experiment: MIC, YAG medium; details: Aspergillus terreus, 24 h at 35° C, MIC banded into grades, read-out: MIC grade, A. terreus 49
Method in brief: as §1

Aspergillus terreus AT4 [6] = experiment: MIC, YAG medium; details: Aspergillus terreus, 24 h at 35° C, MIC banded into grades, read-out: MIC grade, A. terreus
Method in brief: as §1

Aspergillus flavus [7] = experiment: MIC, RPMI medium; details: Aspergillus flavus, MIC banded into grades, read-out: MIC grade, A. flavus
Method in brief: (§2)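 OD485-based endpoint after 24-48 h/35° C; MIC = lowest concentration, >80% inhibition relative to drug-free. RPMI/2% glucose/0.135 M MOPS pH 7.0; 1−2×10^4 cfu/mL; range 50-0.05 mg/L.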

[8] = test system: Aspergillus fumigatus AF210; experiment: MIC, RPMI medium; details: Aspergillus fumigatus, AF210, MIC banded into grades, read-out: MIC grade, A. fumigatus 210
Method in brief: as §2

[9] = test system: Aspergillus fumigatus AF293; experiment: MIC, RPMI medium; details: Aspergillus fumigatus, AF293, MIC banded into grades, read-out: MIC grade, A. fumigatus
Method in brief: as §2

Aspergillus niger [10] = experiment: MIC, RPMI medium; details: Aspergillus niger, MIC banded into grades, read-out: MIC grade, A. niger
Method in brief: as §2

Aspergillus terreus AT49 [11] = experiment: MIC, RPMI medium; details: Aspergillus terreus, AT49, MIC banded into grades, read-out: MIC grade, A. terreus 49
Method in brief: as §2

Aspergillus terreus AT4 [12] = experiment: MIC, RPMI medium; details: Aspergillus terreus, AT4, MIC banded into grades, read-out: MIC grade, A. terreus
Method in brief: as §2

Measured: MIC

Cc1cc(C)nc(N2CCN(c3ccc(NC(=O)C(=O)c4c(-c5ccccc5)cc(C)n4C)cc3)CC2)c1 [Example 1, 2-(1,5-Dimethyl-3-phenyl-1H-pyrrol-2-yl)-N-{4-[4-(4,6-dimethyl-pyridin-2-yl)-piperazin-1-yl]-phenyl}-2-oxo-acetamide]
< 1 µg/mL: all assays above
